Test results reported in patent US20250136614A1, “2,7-SUBSTITUTED PYRROLO[2,1-F][1,2,4]TRIAZINE COMPOUND HAVING PROTEIN KINASE INHIBITORY ACTIVITY” (Magicbullettherapeutics Co., Ltd., priority 2021, published 2025).
Substitutions are numbered along the chain they refer to.

What was measured:
Assay in all cases: Ba/F3 cell growth inhibition (CellTiter-Glo, 72 hours)
Assay type in all cases: cell-based
Ba/F3 FLT3 (ITD) = target: T1, Ba/F3 FLT3 (ITD) (Homo sapiens, UniProt P36888, cells depend on it, form not given); details: read-out: Ba/F3 GI50s (μM) FLT3 (ITD)
T1 sequence (P36888 1-993): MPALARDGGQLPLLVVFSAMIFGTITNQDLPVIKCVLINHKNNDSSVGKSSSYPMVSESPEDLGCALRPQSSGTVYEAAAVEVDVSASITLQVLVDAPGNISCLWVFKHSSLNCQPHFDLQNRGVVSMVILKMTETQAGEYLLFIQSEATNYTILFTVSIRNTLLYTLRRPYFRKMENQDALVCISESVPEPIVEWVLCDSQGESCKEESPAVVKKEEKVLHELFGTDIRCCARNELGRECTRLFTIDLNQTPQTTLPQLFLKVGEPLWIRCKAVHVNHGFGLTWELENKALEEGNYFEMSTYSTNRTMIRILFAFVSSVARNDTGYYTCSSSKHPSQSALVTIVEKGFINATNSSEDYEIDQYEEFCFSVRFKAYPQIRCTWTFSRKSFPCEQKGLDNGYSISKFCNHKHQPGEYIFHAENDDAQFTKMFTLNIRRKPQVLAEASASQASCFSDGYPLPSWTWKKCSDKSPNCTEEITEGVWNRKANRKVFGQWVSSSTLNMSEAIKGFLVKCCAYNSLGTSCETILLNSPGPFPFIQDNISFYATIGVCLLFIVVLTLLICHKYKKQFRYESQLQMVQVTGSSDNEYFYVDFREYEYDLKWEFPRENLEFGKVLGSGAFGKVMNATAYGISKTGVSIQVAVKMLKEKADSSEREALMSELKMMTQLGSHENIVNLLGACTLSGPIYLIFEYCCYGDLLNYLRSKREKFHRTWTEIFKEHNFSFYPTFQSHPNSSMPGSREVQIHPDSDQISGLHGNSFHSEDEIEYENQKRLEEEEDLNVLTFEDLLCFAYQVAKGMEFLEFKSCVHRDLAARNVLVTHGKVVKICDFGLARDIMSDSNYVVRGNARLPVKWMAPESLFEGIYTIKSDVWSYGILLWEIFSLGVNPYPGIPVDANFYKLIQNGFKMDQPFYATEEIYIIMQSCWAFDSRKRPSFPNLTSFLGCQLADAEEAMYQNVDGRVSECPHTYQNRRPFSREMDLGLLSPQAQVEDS
Experimental: (§1) Seeding 3000 cells per well in a 96-well plate. After cell stabilization, treat the cells with compounds diluted in […] at a ⅓ serial dilution and culture for 72 hours. Following treatment with CellTiter-Glo, luminescence is produced only in the presence of ATP, as luciferase degrades luciferin. Luminescence values were measured using Envision (PerkinElmer). Based on the measured luminescence values, the concentration of compounds causing cell death was calculated to determine the GI50 value.
(§2) The activity values were categorized into three levels. • A: IC50<1 μM • B: 1 μM≤IC50<10 μM, • C: IC50≥10 μM

Ba/F3 FLT3 (ITD/D835Y) = target: T2, Ba/F3 FLT3 (ITD/D835Y) (Homo sapiens, UniProt P36888, D835Y, cells depend on it, form not given); details: read-out: Ba/F3 GI50s (μM) FLT3 (ITD/D835Y)
T2 sequence (P36888 1-993 D835Y): T1 sequence (P36888 1-993) with D835Y
Experimental: as §1, §2

Ba/F3 parental = details: Mus musculus, BaF3, Ba/F3 parental cells, read-out: Ba/F3 GI50s (μM) parental
Experimental: as §1, §2

In the case of `CS(=O)(=O)N1CCCn2cc(cn2)Nc2ncc3ccc(n3n2)-c2ccc(cc2)OCC1` [Example 9, (2^1Z,4^4E)-8-(methylsulfonyl)-4^1H-11-oxa-3,8-diaza-2(7,2)-pyrrolo[2,1-f][1,2,4]triazina-4(4,1)-pyrazola-1(1,4)-benzenecycloundecaphane], the GI50 (Ba/F3 FLT3 (ITD)) was less than 1 µM, the GI50 (Ba/F3 FLT3 (ITD/D835Y)) was less than 1 µM and the IC50 (Ba/F3 parental) was 1 to 10 µM.
Work on `CN1CCCn2cc(cn2)Nc2ncc3ccc(n3n2)-c2ccc(cc2)OCC1` [Example 2] yielded a GI50 (Ba/F3 FLT3 (ITD)) of less than 1 µM, a GI50 (Ba/F3 FLT3 (ITD/D835Y)) of less than 1 µM and an IC50 (Ba/F3 parental) of 1 to 10 µM.
For `O=C1CCCCCCOc2ccc(cc2)-c2ccc3cnc(nn23)Nc2ccc(cc2)N2CCN(CCCN1)CC2` [Example 23, (Z)-17-oxa-3,9-diaza-2(7,2)-pyrrolo[2,1-f][1,2,4]triazina-5(1,4)-piperazina-1,4(1,4)-dibenzenacycloheptadecaphan-10-one], the GI50 (Ba/F3 FLT3 (ITD)) was less than 1 µM, the GI50 (Ba/F3 FLT3 (ITD/D835Y)) was less than 1 µM and the IC50 (Ba/F3 parental) was no less than 10 µM.
`O=C1CCCCCCOc2ccc(cc2)-c2ccc3cnc(nn23)Nc2cnn(c2)CCCN1` [Example 37, (2^1Z,4^4E)-4^1H-16-oxa-3,8-diaza-2(7,2)-pyrrolo[2,1-f1][1,2,4]triazina-4(4,1)-pyrazola-1(1,4)-benzenacyclohexadecaphan-9-one] showed a GI50 (Ba/F3 FLT3 (ITD)) of less than 1 µM, a GI50 (Ba/F3 FLT3 (ITD/D835Y)) of less than 1 µM and an IC50 (Ba/F3 parental) of no less than 10 µM.
`O=C1CCCCCCOc2ccc(cc2)-c2ccc3cnc(nn23)Nc2cnn(c2)C2CCN(CCCN1)CC2` [Example 27, (2^1Z,4^4E)-4^1H-17-oxa-3,9-diaza-2(7,2)-pyrrolo[2,1-f1][1,2,4]triazina-5(4,1)-piperidina-4(4,1)-pyrazola-1(1,4)-benzenacycloheptadecaphan-10-one] showed a GI50 (Ba/F3 FLT3 (ITD)) of less than 1 µM, a GI50 (Ba/F3 FLT3 (ITD/D835Y)) of less than 1 µM and an IC50 (Ba/F3 parental) of 1 to 10 µM.
With `O=C1CCCCOc2ccc(cc2)-c2ccc3cnc(nn23)Nc2ccc(cc2)OCCCN1` [Example 38, (Z)-5,15-dioxa-3,9-diaza-2(7,2)-pyrrolo[2,1-f][1,2,4]triazina-1,4(1,4)-dibenzenacyclopentadecaphan-10-one] the GI50 (Ba/F3 FLT3 (ITD)) was less than 1 µM, the GI50 (Ba/F3 FLT3 (ITD/D835Y)) was less than 1 µM and the IC50 (Ba/F3 parental) was no less than 10 µM.
`O=C1COCCOc2ccc(cc2)-c2ccc3cnc(nn23)Nc2ccc(cc2)OCCCN1` [Example 28, (Z)-5,12,15-trioxa-3,9-diaza-2(7,2)-pyrrolo[2,1-f][1,2,4]triazina-1,4(1,4)-dibenzenacyclopentadecaphan-10-one] gave a GI50 (Ba/F3 FLT3 (ITD)) of less than 1 µM, a GI50 (Ba/F3 FLT3 (ITD/D835Y)) of less than 1 µM and an IC50 (Ba/F3 parental) of less than 1 µM.
Work on `c1cc2ccc1Nc1ncc3ccc(n3n1)-c1ccc(cc1)OCCNCCCO2` [Example 30, (Z)-5,12-dioxa-3,9-diaza-2(7,2)-pyrrolo[2,1-f][1,2,4]triazina-1,4(1,4)-dibenzenacyclododecaphane] yielded a GI50 (Ba/F3 FLT3 (ITD)) of less than 1 µM, a GI50 (Ba/F3 FLT3 (ITD/D835Y)) of less than 1 µM and an IC50 (Ba/F3 parental) of no less than 10 µM.
